{
  "source": "patent US8147880B2",
  "about": "“Polyacetylenic compounds for stimulating insulin gene exression, production and secretion” (Academia Sinica, priority 2007, dated 2012)",
  "key": {"[1]": {"tested_on": "RIN-m5F cells", "experiment": "Cytopiloyne-induced insulin secretion after pre-treatment with channel modulators / calcium chelator", "format": "cell-based, rat", "conditions": "then cytopiloyne 5 μg/ml for 10 min", "method": "RIN-[…] cells were pre-treated with vehicle, diazoxide (100 μM), EGTA (10 μM), or nimodipine (1 μM) for 30 minutes. They were then incubated with cytopiloyne at 5 μg/ml for 10 min. Insulin levels in the cell medium were determined using an insulin Elisa kit."}, "[2]": {"tested_on": "human insulin promoter", "experiment": "Insulin promoter luciferase reporter (pINS-Luc / pRL-TK) in transfected RIN-m5F cells", "format": "cell-based", "conditions": "2.5, 10, or 15 μg/ml for 24 hours", "method": "The pINS-DCR3 vector containing a human insulin promoter was digested by SphI and BamHI and then cloned into a pcDNAΔCMVlue vector to generate the plasmid pINS-Luc. The plasmid pRL-TK containing a thymidine kinase promoter and a Renilla luciferase reporter gene was purchased from Promega.\nRIN-m5F cells transfected with pINS-Luc and pRL-TK plasmids were incubated with vehicle, high glucose (16.7 mM), or cytopiloyne at 2.5, 10, or 15 μg/ml for 24 hours."}, "[3]": {"tested_on": "RIN-m5F cells", "experiment": "Insulin secretion into cell medium (insulin Elisa kit)", "format": "cell-based, rat", "conditions": "2.5, 10, and 15 μg/mL for 24 hours", "method": "RIN-m5F cells, a rat β cell line, were obtained from the American Type Culture Collection (ATCC). Glucose-free RPMI medium was purchased from Life Technology. The cells were grown in a glucose-free RPMI 1640 medium supplemented with 10% FCS, penicillin (100 U/ml), streptomycin (100 μg/ml), 2-mercapoethanol (50 μM), sodium pyruvate (1 mM), and glutamate (292 μg/ml).\nThe cells were separately incubated with vehicle, glucose at a high dose (16.7 mM), glucose at a low dose (3.6 mM), and cytopiloyne at 2.5, 10, and 15 μg/mL for 24 hours. Insulin levels in the cell medium were determined using an insulin Elisa kit (Mercodia, Uppsala, Sweden)."}, "[4]": {"tested_on": "Primary β cells from mice", "experiment": "Insulin levels (intracellular anti-insulin staining, Elisa) in primary β cells", "format": "cell-based", "conditions": "mouse primary β cells; 2.5, 5, or 10 μg/ml for 24 hours; vs vehicle", "method": "(§1) Primary β cells from mice were seeded in 9-cm^2 plates in a glucose-free RPMI 1640 medium. Both mouse primary β cells and RIN-m5F cells were treated with vehicle or cytopiloyne at 2.5, 5, or 10 μg/ml for 24 hours. The treated cells were subsequently subjected to intracellular staining with anti-insulin antibody (H86, Santa Cruz Biotechnology, CA, USA) and FITC-conjugated anti-rabbit antiserum (BD Biosciences, CA, USA) according to the manufacturer's instruction. The insulin levels in the cell media were determined using an insulin Elisa kit."}, "[5]": {"tested_on": "db/db mice", "experiment": "Intraperitoneal glucose tolerance test in diabetic db/db mice after oral administration", "format": "in vivo", "conditions": "db/db mice fasted 12 hours, glucose 0.5 g/kg i.p. half an hour later, vs PBS", "method": "The db/db mice were purchased from Jackson Laboratory, and then maintained and handled according to the guidelines of Academia Sinica Institutional Animal Care and Utilization Committee (Taiwan). Glibenclamide was purchased from MP Biomedical Inc.\nDiabetic db/db mice aged 7-8 weeks were fasted for 12 hours (water allowed) and orally administered with PBS, cytopiloyne at 0.5 mg/kg or Glimepiride at 2.5 mg/kg. Half an hour later, the mice were intraperitoneally injected with glucose at 0.5 g/kg body weight. Blood glucose levels were monitored at 0, 0.5, 1, 1.5, 2 and 3 hours using Elite glucometer."}, "[6]": {"tested_on": "db/db mice", "experiment": "Blood glucose levels in fasted diabetic db/db mice after intraperitoneal injection", "format": "in vivo", "conditions": "db/db mice 7-8 weeks old, fasted 12 hours; 25 μg/kg intraperitoneally; at two hours; vs PBS", "method": "The db/db mice were purchased from Jackson Laboratory (Bar Harbor, Me., U.S.A.), and then maintained and handled according to the guidelines of Academia Sinica Institutional Animal Care and Utilization Committee (Taiwan).\nDiabetic db/db mice of 7-8 weeks old were fasted for 12 hours (water allowed), and then intraperitoneally injected with phosphate-buffered saline (PBS) or cytopiloyne at 25 μg/kg, blood glucose levels in the mice were monitored at 0, 1, 2, 4, and 6 hours using Elite glucometer."}, "[7]": {"tested_on": "RIN-m5F cells", "experiment": "Insulin levels (intracellular anti-insulin staining, Elisa) in RIN-m5F cells", "format": "cell-based, rat", "conditions": "2.5, 5, or 10 μg/ml for 24 hours, vs vehicle", "method": "as §1"}},
  "data": [
    {"molecule": "CC1=NS(=O)(=O)c2cc(Cl)ccc2N1", "note": "[diazoxide]", "values": [
      {"measurement": "effect on cytopiloyne-induced insulin secretion", "setting": "[1]; pre-treatment 100 μM for 30 minutes", "result": "suppressed cytopiloyne-induced insulin secretion"}
    ]},
    {"molecule": "O=C(O)CN(CCOCCOCCN(CC(=O)O)CC(=O)O)CC(=O)O", "note": "[EGTA]", "values": [
      {"measurement": "effect on cytopiloyne-mediated insulin secretion", "setting": "[1]; pre-treatment 10 μM for 30 minutes", "result": "suppressed cytopiloyne-mediated insulin secretion"}
    ]},
    {"molecule": "CC#CC#CC#CC#CCCC(CO)OC1OC(CO)C(O)C(O)C1O", "note": "(stereo not drawn) [cytopiloyne]", "values": [
      {"measurement": "insulin transcription", "setting": "[2]", "result": "stimulated insulin transcription in RIN-m5F cells in a dose-dependent manner"},
      {"measurement": "insulin secretion", "setting": "[3]", "result": "significantly enhanced insulin secretion"},
      {"measurement": "insulin levels", "setting": "[4]", "result": "elevated insulin levels"},
      {"measurement": "glucose tolerance", "setting": "[5]; 0.5 mg/kg orally", "result": "improved glucose tolerance as effectively as Glimepiride"},
      {"measurement": "blood glucose levels", "setting": "[6]", "result": "significantly decreased"},
      {"measurement": "insulin levels", "setting": "[7]", "result": "elevated insulin levels"}
    ]},
    {"molecule": "CCC1=C(C)CN(C(=O)NCCc2ccc(S(=O)(=O)NC(=O)N[C@H]3CC[C@H](C)CC3)cc2)C1=O", "note": "[Glimepiride, reference compound]", "values": [
      {"measurement": "glucose tolerance", "setting": "[5]; 2.5 mg/kg orally", "result": "improved glucose tolerance"}
    ]}
  ]
}
